Test results from PubChem BioAssay (NCI).
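Method: 48-hour compound exposure of cells in 96-well plates, five concentrations, linear interpolation of endpoints. TGI is the concentration that stops growth completely.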

How the values were obtained:
Experiment in all cases: DTP human tumour cell line panel, 48 h
786-0 renal = test system: 786-0 renal
A498 renal = test system: A498 renal
A549 NSCLC = test system: A549 NSCLC
ACHN renal = test system: ACHN renal
CAKI-1 renal = test system: CAKI-1 renal
CCRF-CEM leukemia = test system: CCRF-CEM leukemia
COLO 205 colon = test system: COLO 205 colon
DLD-1 colon = test system: DLD-1 colon
DMS 114 small cell lung = test system: DMS 114 small cell lung
DMS 273 small cell lung = test system: DMS 273 small cell lung
EKVX NSCLC = test system: EKVX NSCLC
HCC-2998 colon = test system: HCC-2998 colon
HCT-116 colon = test system: HCT-116 colon
HCT-15 colon = test system: HCT-15 colon
HL-60(TB) leukemia = test system: HL-60(TB) leukemia
HOP-18 NSCLC = test system: HOP-18 NSCLC
HOP-62 NSCLC = test system: HOP-62 NSCLC
HOP-92 NSCLC = test system: HOP-92 NSCLC
HT29 colon = test system: HT29 colon
IGROV1 ovarian = test system: IGROV1 ovarian
K-562 leukemia = test system: K-562 leukemia
KM12 colon = test system: KM12 colon
KM20L2 colon = test system: KM20L2 colon
LOX IMVI melanoma = test system: LOX IMVI melanoma
LXFL 529 NSCLC = test system: LXFL 529 NSCLC
M14 melanoma = test system: M14 melanoma
M19-MEL melanoma = test system: M19-MEL melanoma
MALME-3M melanoma = test system: MALME-3M melanoma
MOLT-4 leukemia = test system: MOLT-4 leukemia
NCI-H226 lung = test system: NCI-H226 lung
NCI-H23 lung = test system: NCI-H23 lung
NCI-H460 lung = test system: NCI-H460 lung
NCI-H522 lung = test system: NCI-H522 lung
OVCAR-3 ovarian = test system: OVCAR-3 ovarian
OVCAR-4 ovarian = test system: OVCAR-4 ovarian
OVCAR-5 ovarian = test system: OVCAR-5 ovarian
OVCAR-8 ovarian = test system: OVCAR-8 ovarian
RPMI-8226 leukemia = test system: RPMI-8226 leukemia
RXF 393 renal = test system: RXF 393 renal
RXF-631 renal = test system: RXF-631 renal
SF-268 CNS = test system: SF-268 CNS
SF-295 CNS = test system: SF-295 CNS
SF-539 CNS = test system: SF-539 CNS
SK-MEL-2 melanoma = test system: SK-MEL-2 melanoma
SK-MEL-28 melanoma = test system: SK-MEL-28 melanoma
SK-MEL-5 melanoma = test system: SK-MEL-5 melanoma
SK-OV-3 ovarian = test system: SK-OV-3 ovarian
SN12C renal = test system: SN12C renal
SNB-19 CNS = test system: SNB-19 CNS
SNB-75 CNS = test system: SNB-75 CNS
SNB-78 CNS = test system: SNB-78 CNS
SR leukemia = test system: SR leukemia
SW-620 colon = test system: SW-620 colon
TK-10 renal = test system: TK-10 renal
U251 CNS = test system: U251 CNS
UACC-257 melanoma = test system: UACC-257 melanoma
UACC-62 melanoma = test system: UACC-62 melanoma
UO-31 renal = test system: UO-31 renal
XF 498 CNS = test system: XF 498 CNS

Measured: TGI

C[C@]12CCc3nonc3C1CC[C@@H]1C2CC[C@]2(C)C(=O)/C(=N\O)CC12 (some centres not stated)
32 µM: NCI-H522 lung
3.69 µM: HL-60(TB) leukemia
> 100 µM: all other assays above

O=C(O)C1(C(=O)O)CC1
not listed: HOP-92 NSCLC | HT29 colon | LOX IMVI melanoma | NCI-H226 lung | OVCAR-5 ovarian | SR leukemia
> 100 µM: all other assays above
